# System: HaCaT cells
# Assay: Whole-cell patch-clamp recordings of HaCaT cells
# Format: cell-based, human
# Protocol: In an embodiment, the NP bioactivity was carried out as follows: electrophysiological recordings. Whole-cell patch-clamp recordings of HaCaT cells were performed using borosilicate glass patch pipettes with a resistance of 2-5 MΩ and compensating the series resistance by 50-60% with a List EPC-7 amplifier, as described previously^56. The pipettes were filled with (in mM): 135 K-gluconate, 10 CsCl, 0.4 NaH2PO4, 0.73 CaCl2, 1 MgCl2, 1 EGTA, and 14 HEPES (pH 7.4). The external solution contained (mM): 140 NaCl, 3 KCl, 2 CaCl2, 1 MgCl2, 15 HEPES and 10 glucose (pH 7.4). Cells were rapidly perfused as previously described and all experiments were carried out at RT (22-25° C.). The currents were recorded at −70 mV, filtered (2-pole Butterworth filter, −12 dB/octave) and digitized to a personal computer at a sampling rate of 1 kHz for analysis using pCLAMP software (AXON instruments). Charge transfer was calculated by the integration of the area under the current in the first 100 s (Q100) from the beginning of the exposure to Au NPs, LL37 or LL37-Au NPs in the absence or presence of apyrase (darker background; 20 U/mL; Sigma).
compound,measurement,setting,value
CC[C@H](C)[C@H](NC(=O)[C@H](CCCCN)NC(=O)[C@H](CCC(=O)O)NC(=O)[C@H](CCCCN)NC(=O)[C@H](CO)NC(=O)[C@H](CCCCN)NC(=O)[C@H](CCCNC(=N)N)NC(=O)[C@H](Cc1ccccc1)NC(=O)[C@H](Cc1ccccc1)NC(=O)[C@H](CC(=O)O)NC(=O)CNC(=O)[C@H](CC(C)C)NC(=O)[C@@H](N)CC(C)C)C(=O)NCC(=O)N[C@@H](CCCCN)C(=O)N[C@@H](CCC(=O)O)C(=O)N[C@@H](Cc1ccccc1)C(=O)N[C@@H](CCCCN)C(=O)N[C@@H](CCCNC(=N)N)C(=O)N[C@H](C(=O)N[C@H](C(=O)N[C@@H](CCC(N)=O)C(=O)N[C@@H](CCCNC(=N)N)C(=O)N[C@H](C(=O)N[C@@H](CCCCN)C(=O)N[C@@H](CC(=O)O)C(=O)N[C@@H](Cc1ccccc1)C(=O)N[C@@H](CC(C)C)C(=O)N[C@@H](CCCNC(=N)N)C(=O)N[C@@H](CC(N)=O)C(=O)N[C@@H](CC(C)C)C(=O)N[C@H](C(=O)N1CCC[C@H]1C(=O)N[C@@H](CCCNC(=N)N)C(=O)N[C@H](C(=O)N[C@@H](CCC(=O)O)C(=O)N[C@@H](CO)C(=O)N[C@@H](CS)C(N)=O)[C@@H](C)O)C(C)C)[C@@H](C)CC)C(C)C)[C@@H](C)CC [LL37],effect of apyrase on charge transfer / inward current,apyrase 20 U/mL,no decrease
same,inward current,holding potential −70 mV,elicited an inward current
